# Data reported in US20170313974A1, “Modulation of Tissue Fatty Acid Composition of a Host by Human Gut Bacteria” (University College Cork, National University of Ireland, priority 2007, published 2017).
# Marks after values point to notes of the source that are not given here.
# How the values were obtained:
# splenocytes = assay: Cytokine production by stimulated splenocytes of fed SCID mice with colitis; assay type: in vivo
# Protocol: (§1) Materials and Methods Severe Combined Immuno Deficient (SCID) mice were used in this study, which had been induced with colitis through adoptive transfer of splenic CD4^+ CD45RB^high T cells from BALB/c mice. […] Ten weeks after colitis induction, cytokine production by splenocytes was measured in vitro by ELISA, myeloperoxidase (MPO) activity was determined in colonic homogenates and fatty acid composition in liver, adipose tissue, cecum and colon was determined by gas liquid chromatography (GLC). Similar studies have also been conducted in pigs (data not shown here) and similar results obtained.
# Cytokine production in response to defined stimuli, in vitro, was measured using enzyme-linked immunosorbent assay (ELISA). Splenocyte isolation was performed using an erythrocyte lysing kit (R&D Systems). The spleens of all mice were removed at the time of sacrifice, blotted on filter paper and weighed. Each spleen was immediately placed in Hanks' buffer containing 10% fetal calf serum. The spleen was teased apart and sieved through a cell strainer into a 50 ml centrifuge tube. Cells were centrifuged for 10 minutes at 200 g. The cells were resuspended in 2 ml M-lyse buffer, which lyses red blood cells, and incubated for 8 minutes at room temperature. Lysis was deactivated using wash buffer and the cell suspension was centrifuged for 10 minutes at 200 g. Cells were resuspended in DMEM (10% fetal calf serum, 1% Pen/Strep, Sigma) and diluted to 1×10^6 cells/ml for in vitro culturing. The isolated lymphocytes were cocultured with the proinflammatory bacterium Salmonella typhimurium UK1 (1×10^6 cells/ml) and with antiCD3-antiCD28 monoclonal antibodies for 48 hours at 37° C. Cell supernatants were isolated and stored at −80° C. Cytokine analysis was performed on the supernatants using a BD™ Cytometric Bead Array (CBA) Mouse Inflammation Kit (BD Biosciences, US).
# SCID mice = assay: Tissue fatty acid composition, SCID mouse colitis feeding study (10 weeks); assay type: in vivo
# Protocol: as §1
# SCID mice were purchased from Harlan ltd. (Briester, Oxon, UK) at 6 weeks of age and fed a normal diet for 1 week to stabilize all metabolic conditions. Each cage contained one mouse. Mice were exposed to a 12-h light:dark cycle and maintained at a constant temperature of 25° C. One week after arrival, mice were divided into five groups for different dietary treatments (Table I).
# For linoleic acid and c9t11 CLA treatment, a powdered diet blended with the drug was administered for 10 weeks to yield a dose of drug at approximately 90 mg/day/mouse (this is based on preliminary experiments by Bassaganya-Riera et al. (22) that established an optimal dose of fatty acids of 1 g/100 g of diet).
# After the adoptive transfer, mice were weighed three times a week and examined for clinical signs of disease associated with colitis (ie. rectal bleeding, diarrhoea and rectal prolapse). After 10 weeks on experimental diets, the mice were sacrificed by cervical dislocation. Livers, adipose tissue, spleens, colons and cecums were removed from the carcasses, blotted dry on filter paper, weighed and frozen in liquid nitrogen. All samples were stored at −80° C. until processed. The colon was divided into different sections for MPO activity and fatty acid composition.
# Lipids were extracted with Chloroform:Methanol 2:1 v/v according to Folch et al. (25). Briefly, tissue or faecal samples, ˜1 g liver, 300 mg small intestine, 200 mg adipose tissue, 250 mg colon, 800 mg cecum or 100 mg feaces were homogenised in over a 25 fold excess of CHCl3:CH3OH (2:1 v/v) and washed with 0.88% KCl solution. Excess solvent was dried down under a gentle stream of N2 at 40° C. and lipids were stored at −20° C. in 1 ml chloroform. Fatty acid methyl esters (FAME) were prepared using first 10 ml 0.5N NaOH in methanol for 10 min at 90° C. followed by 10 ml 14% BF3 in methanol for 10 min at 90° C. (26). FAME was recovered with hexane. Prior to GC analysis samples were dried over 0.5 g of anhydrous sodium sulphate for an hour and stored at −20° C. FAME were separated by gas liquid chromatography (GLC Varian 3400, Varian, Walnut Creek, Calif. USA fitted with a flame ionization detector) using a Chrompack CP Sil 88 column (Chrompack, Middleton, The Netherlands, 100 m×0.25 mm i.d., 0.20 μm film thickness) and He as a carrier gas. The column oven was programmed to be held initially at 80° C. for 8 minutes then increased 8.5° C./min to a final column temperature of 200° C. The injection volume used was 0.6 μl with automatic sample injection with a splitless on SPI on-column temperature programmable injector. Data was recorded and analysed on a Minichrom PC system (VG Data System, Manchester, U.K.). Tri-heptadecanoate (Sigma) was used as an internal standard, and peaks were identified with reference to retention times of fatty acids in a standard mixture. All fatty acid results are shown as mean±SD (n=8) g/100 g FAME.
# BALB/c mice = assay: Tissue fatty acid composition, BALB/c α-linolenic acid feeding trial (8 weeks); assay type: in vivo
# Protocol: Female BALB/c mice were purchased from Harlan ltd. (Briester, Oxon, UK) at 8 weeks of age and fed a normal diet for 1 week to stabilize all metabolic conditions. […] Mice were maintained at 4 per cage and exposed to a 12-h light:dark cycle at a constant temperature of 25° C. The mice were held at the Biological Services Unit in University College Cork. The animal experimentation was performed according to the guidelines for the care and use of laboratory animals approved by the Department of Health and Children.
# (§2) Animals were fed standard mouse chow ad libitum with free access to water at all times. […] Following 8 weeks on experimental diets, the animals were sacrificed by cervical dislocation. Liver, adipose tissue and brain were removed from the carcasses, blotted dry on filter paper, weighed and frozen in liquid nitrogen. All samples were stored at −80° C. until processed.
# Lipids were extracted according to the method by O'Fallon et al. (20). Briefly, samples were cut into 1.5-mm rectangular strips and placed into a screw-cap Pyrex culture tube together with 0.7 ml of 10 N KOH in water and 5.3 ml of MeOH. The tubes were incubated in a 55° C. water bath for 1.5 h with vigorous hand-shaking every 20 min. After cooling below room temperature, 0.58 ml of 24 N H2SO4 in water was added. The tubes were mixed by inversion and with precipitated K2SO4 present incubated again in 55° C. for 1.5 h with hand-shaking every 20 min. FAME were recovered by addition of 3 ml hexane and vortex mixed and separated by GLC (Varian 3400, Varian, Walnut Creek, Calif. USA fitted with a flame ionization detector) using a Chrompack CP Sil 88 column (Chrompack, Middleton, The Netherlands, 100 m×0.25 mm i.d., 0.20 μm film thickness) and He as carrier gas. The column oven was initially programmed at 80° C. for 8 min, and increased 8.5° C./min to a final column temperature of 200° C. The injection volume was 0.6 μl, with automatic sample injection on a SPI 1093 splitless on-column temperature programmable injector. Data were recorded and analysed on a Minichrom PC system (VG Data System, Manchester, U.K.). Peaks were identified with reference to retention times of fatty acids in a standard mixture. All fatty acid results are shown as mean±standard error mean (SEM) g/100 g FAME.
# [1] = Body weight gain, BALB/c α-linolenic acid trial; assay type: in vivo, BALB/c mice; conditions: 8 week trial period
# Protocol: as §2
# [2] = stimulation with S. typhimurium UK1
# [3] = stimulation with antiCD3-antiCD28
# [4] = adipose tissue, 8 weeks, SEM, n = 8
smiles,measurement,setting,value
"CCCCCC/C=C/C=C\CCCCCCCC(=O)O [c9, t11 CLA, cis-9, trans-11 CLA]",IFN-γ levels,splenocytes; [2],reduced
same,IL-6 levels,splenocytes; [2],reduced
same,TNF-α levels,splenocytes; [2],1428.7
same,IFN-γ levels,splenocytes; [3],1334.2
same,IL-6 levels,splenocytes; [3],213.7
same,TNF-α levels,splenocytes; [3],458.9
same,16:1n-7 (palmitoleic acid) in all tissues,SCID mice; all tissues,higher
same,20:4n-6 in cecum digests,SCID mice; cecum digests,significant decrease
same,16:0 (palmitic acid) in colon,SCID mice; colon,significantly higher
same,"arachidonic acid, 20:4n-6 (AA) in liver",SCID mice; compared to other groups,decrease
same,"c9, t11 CLA in all tissues",SCID mice; compared to other groups,much higher
"CC/C=C\C/C=C\C/C=C\CCCCCCCC(=O)O [B, α-linolenic acid]","C16:0 palmitic acid, adipose tissue",BALB/c mice; [4],28.73 ± 2.16^c g/100 g FAME
same,"C16:1c9 palmitoleic acid, adipose tissue",BALB/c mice; [4],6.07 ± 2.01 g/100 g FAME
same,"C18:0 stearic acid, adipose tissue",BALB/c mice; [4],8.00 ± 2.33 g/100 g FAME
same,"C18:1c9 oleic acid, adipose tissue",BALB/c mice; [4],14.83 ± 3.01 g/100 g FAME
same,"C18:2n-6 linoleic acid, adipose tissue",BALB/c mice; [4],18.80 ± 0.81^c g/100 g FAME
same,"C18:3n-3 linolenic acid, adipose tissue",BALB/c mice; [4],"7.35 ± 2.15^c,d g/100 g FAME"
same,"C18:3n-6 γ-linolenic acid, adipose tissue",BALB/c mice; [4],0.13 ± 0.03 g/100 g FAME
same,"C18:4n-3 stearidonic acid, adipose tissue",BALB/c mice; [4],0.12 ± 0.03 g/100 g FAME
same,"C20:3n-6 dihomo-γ-linolenic acid, adipose tissue",BALB/c mice; [4],0.30 ± 0.09 g/100 g FAME
same,"C20:4n-6 arachidonic acid, adipose tissue",BALB/c mice; [4],"5.27 ± 2.04^c,d g/100 g FAME"
same,"C20:5n-3 eicosapentaenoic acid, adipose tissue",BALB/c mice; [4],"2.37 ± 0.76^c,d g/100 g FAME"
same,"C22:5n-3 docosapentaenoic acid, adipose tissue",BALB/c mice; [4],"0.55 ± 0.14^c,d g/100 g FAME"
same,"C22:6n-3 docosahexaenoic acid, adipose tissue",BALB/c mice; [4],1.17 ± 0.36 g/100 g FAME
same,"n-6/n-3, adipose tissue",BALB/c mice; [4],"2.15 ± 0.15^c,d"
same,"C16:0, brain","BALB/c mice; brain, 8 weeks, SEM, n = 8",32.38 ± 0.44^c g/100 g FAME
same,"C16:1c9, brain","BALB/c mice; brain, 8 weeks, SEM, n = 8","0.94 ± 0.03^a,c,d g/100 g FAME"
same,"C18:0, brain","BALB/c mice; brain, 8 weeks, SEM, n = 8",19.87 ± 0.14^a g/100 g FAME
same,"C18:1c9, brain","BALB/c mice; brain, 8 weeks, SEM, n = 8",17.61 ± 0.24^ g/100 g FAME
same,"C18:2n-6, brain","BALB/c mice; brain, 8 weeks, SEM, n = 8","1.54 ± 0.10^a,c,d g/100 g FAME"
same,"C20:4n-6, brain","BALB/c mice; brain, 8 weeks, SEM, n = 8","6.88 ± 0.12^c,d g/100 g FAME"
same,"C20:5n-3, brain","BALB/c mice; brain, 8 weeks, SEM, n = 8","0.15 ± 0.01^c,d g/100 g FAME"
same,"C22:5n-3, brain","BALB/c mice; brain, 8 weeks, SEM, n = 8",0.24 ± 0.01^c g/100 g FAME
same,"C22:6n-3, brain","BALB/c mice; brain, 8 weeks, SEM, n = 8",8.87 ± 0.30^a g/100 g FAME
same,"n-6/n-3, brain","BALB/c mice; brain, 8 weeks, SEM, n = 8",0.89 ± 0.03^a
same,"C18:3n-3, brain","BALB/c mice; brain, 8 weeks, SEM, n = 8, ND = not detected","0.18 ± 0.02^a,c,d g/100 g FAME"
same,higher concentrations of α-linolenic acid and EPA in liver and adipose tissue,"BALB/c mice; compared with group C and group D, p<0.001",10 fold
same,"arachidonic acid/EPA ratio in adipose tissue, fold lower",BALB/c mice; compared with group D,~20 fold
same,"arachidonic acid/EPA ratio in liver, fold lower",BALB/c mice; compared with group D,approximately 30 fold
same,"C16:0 palmitic acid, liver","BALB/c mice; liver, 8 weeks, SEM, n = 8","23.89 ± 0.71^c,d g/100 g FAME"
same,"C16:1c9 palmitoleic acid, liver","BALB/c mice; liver, 8 weeks, SEM, n = 8","2.07 ± 0.18^a,d g/100 g FAME"
same,"C18:0 stearic acid, liver","BALB/c mice; liver, 8 weeks, SEM, n = 8","12.36 ± 0.44^a,d g/100 g FAME"
same,"C18:1c9 oleic acid, liver","BALB/c mice; liver, 8 weeks, SEM, n = 8","10.16 ± 0.62^c,d g/100 g FAME"
same,"C18:2n-6 linoleic acid, liver","BALB/c mice; liver, 8 weeks, SEM, n = 8",18.32 ± 0.21^d g/100 g FAME
same,"C18:3n-3 linolenic acid, liver","BALB/c mice; liver, 8 weeks, SEM, n = 8","9.47 ± 0.64^c,d g/100 g FAME"
same,"C18:3n-6 γ-linolenic acid, liver","BALB/c mice; liver, 8 weeks, SEM, n = 8","0.17 ± 0.01^c,d g/100 g FAME"
same,"C18:4n-3 stearidonic acid, liver","BALB/c mice; liver, 8 weeks, SEM, n = 8","0.16 ± 0.01^c,d g/100 g FAME"
same,"C20:3n-6 dihomo-γ-linolenic acid, liver","BALB/c mice; liver, 8 weeks, SEM, n = 8",0.61 ± 0.02^a g/100 g FAME
same,"C20:4n-6 arachidonic acid, liver","BALB/c mice; liver, 8 weeks, SEM, n = 8","5.57 ± 0.14^a,c,d g/100 g FAME"
same,"C20:5n-3 eicosapentaenoic acid, liver","BALB/c mice; liver, 8 weeks, SEM, n = 8","3.07 ± 0.12^a,c,d g/100 g FAME"
same,"C22:5n-3 docosapentaenoic acid, liver","BALB/c mice; liver, 8 weeks, SEM, n = 8","0.94 ± 0.05^c,d g/100 g FAME"
same,"C22:6n-3 docosahexaenoic acid, liver","BALB/c mice; liver, 8 weeks, SEM, n = 8",5.66 ± 0.28^d g/100 g FAME
same,"n-6/n-3, liver","BALB/c mice; liver, 8 weeks, SEM, n = 8","1.30 ± 0.07^c,d"
same,body weight gain,[1],did not significantly influence
